From DBAASP
≈ marks a conversion by molar mass, not a printed value. Where “and” joins values, the source holds several entries; their conditions need not be identical. Equal values may be shown once.

Key:
Assay in all cases: ≥ marks a high value that may be exact or a test limit, other limits are often not marked, values filed in µg/mL are converted to µM
[1] = tested on: Staphylococcus aureus ATCC 29213
[2] = tested on: Bacillus subtilis KCTC 1998
[3] = tested on: Escherichia coli ATCC 25922
[4] = tested on: Listeria monocytogenes ATCC 3710
[5] = tested on: Staphylococcus epidermidis ATCC 12228
[6] = tested on: Pseudomonas aeruginosa ATCC 15692
[7] = tested on: Proteus vulgaris KCTC 2433
[8] = tested on: Cryptococcus neoformans ATCC 28957
[9] = tested on: Fusarium oxysporum
[10] = tested on: Bacillus subtilis ATCC 23857
[11] = tested on: Candida albicans ATCC 90028
[12] = tested on: Trichoderma asperellum
[13] = tested on: Fusarium oxysporum f.sp. vasinfectum
[14] = tested on: Ramulariopsis gossypii
[15] = tested on: Xanthomonas campestris pv. citri
[16] = tested on: Pectobacterium carotovorum
[17] = tested on: Pseudomonas syringae pv. tabaci
[18] = tested on: Pseudomonas aeruginosa ATCC 27853
[19] = tested on: Klebsiella oxytoca
[20] = tested on: Staphylococcus aureus 08032810
[21] = tested on: Staphylococcus aureus ATCC 25923
[22] = tested on: Candida albicans 08030102
[23] = tested on: Salmonella enterica subsp. enterica serovar Paratyphi A
[24] = tested on: Candida albicans 08030401
[25] = tested on: Staphylococcus aureus 08032706
[26] = tested on: Staphylococcus epidermidis
[27] = tested on: Candida albicans 08022710
[28] = tested on: Nocardia asteroides
[29] = tested on: Enterococcus faecium 1299
[30] = tested on: Enterococcus faecalis 981
[31] = tested on: Shigella sp.
[32] = tested on: Candida glabrata 08A802
[33] = tested on: Bacillus cereus
[34] = tested on: Candida glabrata 09050201
[35] = tested on: Staphylococcus aureus 08032712
[36] = tested on: Stenotrophomonas maltophilia
[37] = tested on: Klebsiella pneumoniae 1400
[38] = tested on: Pseudomonas aeruginosa 08031014
[39] = tested on: Candida albicans 08030809
[40] = tested on: Escherichia coli
[41] = tested on: Vibrio parahaemolyticus
[42] = tested on: Vibrio fluvialis
[43] = tested on: Aeromonas hydrophila
[44] = tested on: Staphylococcus aureus
[45] = tested on: Vibrio alginolyticus
[46] = tested on: Streptococcus pyogenes

Structure (SMILES): CC[C@H](C)[C@H](NC(=O)CNC(=O)[C@H](Cc1cnc[nH]1)NC(=O)[C@H](CCCCN)NC(=O)[C@@H](NC(=O)[C@H](CO)NC(=O)CNC(=O)[C@@H](NC(=O)[C@H](Cc1ccccc1)NC(=O)[C@H](CCCN=C(N)N)NC(=O)[C@H](CCCCN)NC(=O)[C@@H](N)Cc1ccccc1)[C@@H](C)CC)C(C)C)C(=O)NCC(=O)N[C@@H](Cc1cnc[nH]1)C(=O)N[C@@H](CC(C)C)C(=O)N[C@H](C(=O)N[C@@H](Cc1cnc[nH]1)C(=O)N[C@@H](Cc1cnc[nH]1)C(=O)N[C@H](C(=O)NCC(=O)N[C@H](C(=O)N[C@@H](C)C(=O)N[C@@H](CC(C)C)C(N)=O)C(C)C)[C@@H](C)CC)C(C)C [FKRFIGSVKHGIGHLVHHIGVAL]
- MIC [1]: 8 µM (≈ 20.2 µg/mL)
- MIC [2]: 8 µM and 16 µM
- MIC [3]: 2 µM and 4 µM
- MIC [4]: 16 µM and 8 µM
- MIC [5]: 4 µM and 8 µM
- MIC [6]: ≥ 32 µM
- MIC [7]: 4 µM and 8 µM

Structure (SMILES): CC(C)C[C@H](NC(=O)[C@H](C)NC(=O)[C@H](CCCN=C(N)N)NC(=O)[C@@H](NC(=O)[C@H](CCC(N)=O)NC(=O)[C@H](CCCCN)NC(=O)[C@H](CCCCN)NC(=O)[C@H](C)NC(=O)[C@H](CC(C)C)NC(=O)[C@H](CCCCN)NC(=O)[C@H](C)NC(=O)CN)C(C)C)C(=O)NCC(=O)N[C@@H](CCCCN)C(=O)N[C@@H](Cc1ccccc1)C(=O)N[C@@H](Cc1ccccc1)C(=O)N[C@@H](CO)C(=O)N[C@@H](Cc1ccccc1)C(N)=O [GAKLAKKQVRALGKFFSF]
- MIC [8]: ≥ 64 µM
- MIC [9]: ≥ 256 µM
- MIC [10]: 8 µM (≈ 16 µg/mL)
- MIC [11]: ≥ 128 µM
- MIC [12]: ≥ 128 µM
- MIC [3]: 16 µM (≈ 31.9 µg/mL)
- MIC [13]: ≥ 64 µM
- MIC [14]: 16 µM (≈ 31.9 µg/mL)
- MIC [15]: ≥ 32 µM
- MIC [16]: ≥ 32 µM
- MIC [17]: 8 µM (≈ 16 µg/mL)

Structure (SMILES): CC[C@H](C)[C@H](NC(=O)[C@H](CCCN=C(N)N)NC(=O)[C@H](Cc1c[nH]c2ccccc12)NC(=O)CNC(=O)[C@H](Cc1ccc(O)cc1)NC(=O)[C@H](CCCN=C(N)N)NC(=O)[C@H](CCCN=C(N)N)NC(=O)[C@H](C)NC(=O)[C@H](Cc1ccccc1)NC(=O)[C@H](CCCN=C(N)N)NC(=O)CNC(=O)[C@H](C)NC(=O)CNC(=O)[C@H](CCCN=C(N)N)NC(=O)[C@@H](NC(=O)[C@H](Cc1ccccc1)NC(=O)[C@H](CCCN=C(N)N)NC(=O)[C@H](CCCN=C(N)N)NC(=O)[C@H](Cc1c[nH]c2ccccc12)NC(=O)[C@H](CCCN=C(N)N)NC(=O)[C@H](CO)NC(=O)[C@H](CCCN=C(N)N)NC(=O)[C@@H](N)[C@@H](C)O)[C@@H](C)CC)C(=O)N[C@@H](C)C(=O)N[C@@H](CC(C)C)C(=O)NCC(=O)N[C@@H](CC(C)C)C(=O)N[C@H](C(=O)NCC(=O)O)C(C)C [TRSRWRRFIRGAGRFARRYGWRIALGLVG]
- MIC [18]: 5.37 µM (≈ 18.8 µg/mL)
- MIC [19]: 5.37 µM (≈ 18.8 µg/mL)
- MIC [20]: 5.37 µM (≈ 18.8 µg/mL)
- MIC [21]: 5.37 µM (≈ 18.8 µg/mL)
- MIC [3]: 5.37 µM (≈ 18.8 µg/mL)
- MIC [22]: 5.37 µM (≈ 18.8 µg/mL)
- MIC [23]: 10.7 µM (≈ 37.5 µg/mL)
- MIC [24]: 2.69 µM (≈ 9.38 µg/mL)
- MIC [25]: 5.37 µM (≈ 18.8 µg/mL)
- MIC [26]: 5.37 µM (≈ 18.8 µg/mL)
- MIC [27]: 5.37 µM (≈ 18.8 µg/mL)
- MIC [28]: 2.69 µM (≈ 9.38 µg/mL)
- MIC [29]: 5.37 µM (≈ 18.8 µg/mL)
- MIC [30]: 10.7 µM (≈ 37.5 µg/mL)
- MIC [31]: 1.34 µM (≈ 4.69 µg/mL)
- MIC [32]: 2.69 µM (≈ 9.38 µg/mL)
- MIC [33]: 2.69 µM (≈ 9.38 µg/mL)
- MIC [34]: 5.37 µM (≈ 18.8 µg/mL)
- MIC [35]: 5.37 µM (≈ 18.8 µg/mL)
- MIC [36]: 5.37 µM (≈ 18.8 µg/mL)
- MIC [37]: 7.49 µM (≈ 26.2 µg/mL)
- MIC [38]: 2.69 µM (≈ 9.38 µg/mL)
- MIC [39]: 5.37 µM (≈ 18.8 µg/mL)
- MIC [40]: 5.37 µM (≈ 18.8 µg/mL)

Structure (SMILES): CC[C@H](C)[C@H](NC(=O)[C@H](CCCCN)NC(=O)[C@H](Cc1cnc[nH]1)NC(=O)[C@H](CC(C)C)NC(=O)[C@H](CC(C)C)NC(=O)CNC(=O)[C@H](CC(N)=O)NC(=O)[C@@H](N)C(C)C)C(=O)N[C@@H](Cc1ccc(O)cc1)C(=O)NCC(=O)N[C@@H](CC(N)=O)C(=O)N[C@H](C(=O)N[C@@H](CCCN=C(N)N)C(=O)N[C@@H](Cc1ccc(O)cc1)C(=O)N[C@@H](CO)C(=O)O)[C@@H](C)CC [VNGLLHKIYGNIRYS]
- MIC [41]: ≥ 35.8 µM
- MIC [42]: ≥ 143 µM
- MIC [43]: 8.93 µM (≈ 15.6 µg/mL)
- MIC [44]: > 143 µM
- MIC [45]: ≥ 143 µM
- MIC [46]: 8.93 µM (≈ 15.6 µg/mL)
- MIC [40]: 8.93 µM (≈ 15.6 µg/mL)
